For test [1], the target named is T1, human recombinant serotonin (5-Hydroxytryptamine) 5-HT2C receptor (Homo sapiens, UniProt P28335).
T1 construct: expressed in transfected cells; host or cells: CHO-K1 cells
T1 sequence (P28335 33-458): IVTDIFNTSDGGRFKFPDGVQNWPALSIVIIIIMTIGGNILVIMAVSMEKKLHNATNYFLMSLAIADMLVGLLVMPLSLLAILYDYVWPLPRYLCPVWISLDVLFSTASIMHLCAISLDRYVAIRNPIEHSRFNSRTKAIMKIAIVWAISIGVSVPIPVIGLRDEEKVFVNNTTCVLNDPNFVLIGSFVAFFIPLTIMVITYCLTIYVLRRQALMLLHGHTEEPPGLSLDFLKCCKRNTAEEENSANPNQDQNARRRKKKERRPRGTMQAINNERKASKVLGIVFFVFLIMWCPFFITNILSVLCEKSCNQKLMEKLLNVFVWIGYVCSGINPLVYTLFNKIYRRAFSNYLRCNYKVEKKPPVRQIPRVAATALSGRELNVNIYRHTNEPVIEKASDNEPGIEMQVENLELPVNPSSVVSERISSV
The test can be described thus: Serotonin 5-HT2C radioligand binding ([3H]Mesulergine). As to conditions: compound at 1 μM; read-out: Serotonin (1 μM) 5-HT2C, percent inhibition of specific binding. Summed up: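 Membranes from CHO-K1 cells expressing human 5-HT2C, incubated with 1 nM [3H]mesulergine for 60 min at 25 °C in 50 mM Tris-HCl pH 7.4 with ascorbic acid and pargyline.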

Test [2] addresses T2, human recombinant serotonin (5-Hydroxytryptamine) 5-HT6 receptor (Homo sapiens, UniProt P50406).
T2 construct: expressed in transfected cells; host or cells: human HeLa cells
The test can be described thus: Serotonin 5-HT6 radioligand binding ([3H]LSD). Particulars: compound at 1 μM; read-out: Serotonin (1 μM) 5-HT6, percent inhibition of specific binding. Summed up:
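Human recombinant 5-HT6 receptor from HeLa cells incubated with 1.5 nM [3H]LSD for 120 min at 37° C in 50 mM Tris-HCl pH 7.4, 150 mM NaCl, 2 mM ascorbic acid, 0.001% BSA. Nonspecific binding defined with 5 μM serotonin; bound ligand counted after filtration.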

The target of test [3] is T3, human recombinant histamine H1 receptor (Homo sapiens, UniProt P35367).
T3 construct: expressed in transfected cells; host or cells: CHO cells
The test can be described thus: Histamine H1 radioligand binding ([3H]Pyrilamine). Particulars: compound at 1 μM; read-out: Histamine Binding (1 μM) H1, percent inhibition of specific binding. In short, it runs like this:
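Membranes from CHO cells expressing the receptor were incubated with compound and 1.2 nM [3H]pyrilamine for 180 min at 25 °C in 50 mM Tris-HCl pH 7.4 with MgCl2, NaCl and sucrose; 1 μM pyrilamine defined non-specific binding. Filter-bound radioactivity was counted.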

Test [4] concerns the target T4, human recombinant adrenergic α2B receptor (Homo sapiens, UniProt P18089).
T4 construct: expressed in transfected cells; host or cells: CHO-K1 cells
T4 sequence (P18089 1-450): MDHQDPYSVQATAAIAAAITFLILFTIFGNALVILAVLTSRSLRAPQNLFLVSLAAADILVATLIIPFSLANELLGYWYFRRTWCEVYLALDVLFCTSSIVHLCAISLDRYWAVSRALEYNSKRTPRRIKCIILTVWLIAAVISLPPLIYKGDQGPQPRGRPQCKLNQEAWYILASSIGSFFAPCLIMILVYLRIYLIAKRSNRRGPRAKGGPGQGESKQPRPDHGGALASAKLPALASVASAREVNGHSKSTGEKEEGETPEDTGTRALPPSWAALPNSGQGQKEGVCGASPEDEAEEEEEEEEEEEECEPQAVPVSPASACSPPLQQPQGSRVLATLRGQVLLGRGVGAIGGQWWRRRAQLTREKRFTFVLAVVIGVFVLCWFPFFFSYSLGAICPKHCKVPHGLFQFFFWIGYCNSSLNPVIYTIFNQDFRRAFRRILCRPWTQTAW
The test can be described thus: Adrenergic alpha2B radioligand binding ([3H]Rauwolscine). Particulars: compound at 1 μM; read-out: Adrenergic (1 μM) α2B, percent inhibition of specific binding. Summed up: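 CHO-K1-expressed receptor in Tris-HCl pH 7.4 with MgCl2, EDTA, BSA, incubated 60 min at 25° C with 2.5 nM [3H]Rauwolscine; 10 μM prazosin defines non-specific binding.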

For 18 molecules, inhibition results are on record in patent US9481676B2, “Azepino[4,5-B]indoles and methods of use” (Medivation Technologies, Inc., priority 2008, dated 2016).

What is called inhibition is the drop in the measured response relative to a control, in per cent.

T3 sequence (P35367 whole entry): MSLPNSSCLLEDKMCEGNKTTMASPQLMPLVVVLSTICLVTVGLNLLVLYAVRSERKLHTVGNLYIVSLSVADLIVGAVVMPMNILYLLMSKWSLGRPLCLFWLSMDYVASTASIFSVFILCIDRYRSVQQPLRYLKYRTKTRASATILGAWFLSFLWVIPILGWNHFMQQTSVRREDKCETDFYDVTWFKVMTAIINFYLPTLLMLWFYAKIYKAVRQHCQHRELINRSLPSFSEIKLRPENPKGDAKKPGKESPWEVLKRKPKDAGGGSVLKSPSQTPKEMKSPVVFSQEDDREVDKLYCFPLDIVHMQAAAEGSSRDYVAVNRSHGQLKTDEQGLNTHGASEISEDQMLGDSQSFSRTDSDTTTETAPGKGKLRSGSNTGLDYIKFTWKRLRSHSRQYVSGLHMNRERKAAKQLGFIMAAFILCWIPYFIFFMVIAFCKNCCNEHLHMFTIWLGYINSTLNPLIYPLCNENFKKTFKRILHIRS
T2 sequence (P50406 whole entry): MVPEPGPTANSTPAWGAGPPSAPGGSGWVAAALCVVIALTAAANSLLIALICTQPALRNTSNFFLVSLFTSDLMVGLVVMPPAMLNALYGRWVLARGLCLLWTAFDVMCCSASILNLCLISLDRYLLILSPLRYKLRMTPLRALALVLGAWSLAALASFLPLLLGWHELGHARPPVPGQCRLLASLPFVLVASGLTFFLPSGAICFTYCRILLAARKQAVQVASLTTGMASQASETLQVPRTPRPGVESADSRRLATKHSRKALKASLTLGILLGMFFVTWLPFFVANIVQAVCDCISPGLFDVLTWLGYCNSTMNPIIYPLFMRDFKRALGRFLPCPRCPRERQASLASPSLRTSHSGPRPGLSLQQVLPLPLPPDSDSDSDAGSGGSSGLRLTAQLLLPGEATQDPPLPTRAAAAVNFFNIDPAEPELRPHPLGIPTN

With `CN1CCc2c(n(CCc3ccccc3F)c3ccc(Cl)cc23)CC1` [Compound No. 61, 6-(2-fluorophenethyl)-9-chloro-1,2,3,4,5,6-hexahydro-3-methylazepino[4,5-b]indole], the inhibition at 1 µM in test [1] stood at 89%; in test [2] it was 5%; in test [3], 97%; in test [4] it was 103%.
Take `Cc1ccc2c(c1)c1c(n2CCc2ccccc2F)CCN(C)CC1` [Compound No. 63, 6-(2-fluorophenethyl)-1,2,3,4,5,6-hexahydro-3,9-dimethylazepino[4,5-b]indole]: the inhibition at 1 µM in test [1] was 5%; in test [2], 101%; in test [3] it was 99%; in test [4] it was 73%.
Consider `CN1CCc2c(n(CC(O)c3ccccc3)c3ccc(Cl)cc23)CC1` (stereo not drawn) [Compound No. 24, 2-(9-chloro-2,3,4,5-tetrahydro-3-methylazepino[4,5-b]indol-6(1H)-yl)-1-phenylethanol], for which the inhibition at 1 µM in test [1] came to 95%; in test [2], 99%; in test [3], 100%; in test [4] it was 99%.
For the molecule `COc1ccc(C(O)Cn2c3c(c4cc(C)ccc42)CCN(C)CC3)cc1` (stereo not drawn) [Compound No. 48, 2-(2,3,4,5-tetrahydro-3,9-dimethylazepino[4,5-b]indol-6(1H)-yl)-1-(4-methoxyphenyl) ethanol], the inhibition at 1 µM in test [1] is 98%; in test [2] it was 73%; in test [3] it was 98%; in test [4] it was 103%.
Turning to `CN1CCc2c(n(CC(=O)Nc3ccccc3)c3ccc(Cl)cc23)CC1` [Compound No. 73, 2-(9-chloro-2,3,4,5-tetrahydro-3-methylazepino[4,5-b]indol-6(1H)-yl)-N-phenylacetamide], the inhibition at 1 µM came out at 11% in test [1], 0% in test [2], 18% in test [3] and 21% in test [4].
On to `Cc1ccc2c(c1)c1c(n2CCc2ccc(C(F)(F)F)nc2)CCN(C)CC1` [Compound No. 20, 6-(2-(6-(trifluoromethyl)pyridin-3-yl)ethyl)-1,2,3,4,5,6-hexahydro-3,9-dimethylazepino[4,5-b]indole], for which the inhibition at 1 µM came out at 77% in test [1], 46% in test [2], 99% in test [3] and 88% in test [4].
Regarding `Cc1ccc(C(O)Cn2c3c(c4cc(Cl)ccc42)CCN(C)CC3)cn1` (stereo not drawn) [Compound No. 7, 2-(9-chloro-2,3,4,5-tetrahydro-3-methylazepino[4,5-b]indol-6(1H)-yl)-1-(6-methylpyridin-3-yl)ethanol], the inhibition at 1 µM in test [1] was determined as 64%; in test [2], 36%; in test [3], 101%; in test [4], 101%.
Take `CN1CCc2c(n(CC(O)c3cccnc3)c3ccc(Cl)cc23)CC1` (stereo not drawn) [Compound No. 18, 2-(9-chloro-2,3,4,5-tetrahydro-3-methylazepino[4,5-b]indol-6(1H)-yl)-1-(pyridin-3-yl)ethanol]: the inhibition at 1 µM in test [1] came out at 64%; in test [2], 60%; in test [3], 98%; in test [4], 98%.
On to `C/C(=C\n1c2c(c3cc(C)ccc31)CCN(C)CC2)c1ccc(F)cc1` [Compound No. 34, 6-((E)-2-(4-fluorophenyl)prop-1-enyl)-1,2,3,4,5,6-hexahydro-3,9-dimethylazepino[4,5-b]indole], for which the inhibition at 1 µM was 97% in test [1], 103% in test [2], 95% in test [3] and 110% in test [4].
With `COc1ccc(C(O)Cn2c3c(c4cc(Cl)ccc42)CCN(C)CC3)cc1F` (stereo not drawn) [Compound No. 67, 2-(9-chloro-2,3,4,5-tetrahydro-3-methylazepino[4,5-b]indol-6(1H)-yl)-1-(3-fluoro-4-methoxyphenyl) ethanol], the inhibition at 1 µM in test [1] stood at 93%; in test [2] it was 86%; in test [3] it was 100%; in test [4], 99%.
As to `Cc1ccc2c(c1)c1c(n2CC(=O)NC(C)C)CCN(C)CC1` [Compound No. 54, 2-(2,3,4,5-tetrahydro-3,9-dimethylazepino[4,5-b]indol-6(1H)-yl)-N-isopropylacetamide], the inhibition at 1 µM in test [1] was -2%; in test [2] it was -10%; in test [3], 18%; in test [4] it was 1%.
Take `CN1CCc2c(n(/C=C/c3ccc(F)c(F)c3)c3ccc(Cl)cc23)CC1` [Compound No. 236, (E)-9-chloro-6-(3,4-difluorostyryl)-3-methyl-1,2,3,4,5,6-hexahydroazepino[4,5-b]indole]: the inhibition at 1 µM amounted to 100% in test [1], 102% in test [2], 99% in test [3] and 103% in test [4].
Take `CN1CCc2c(n(CC(O)c3ccc(F)c(F)c3)c3ccc(Cl)cc23)CC1` (stereo not drawn) [Compound No. 58, 2-(9-chloro-2,3,4,5-tetrahydro-3-methylazepino[4,5-b]indol-6(1H)-yl)-1-(3,4-difluorophenyl)ethanol]: the inhibition at 1 µM in test [1] stood at 16%; in test [2], 99%; in test [3], 98%; in test [4], 10%.
Take `Cc1ccc2c(c1)c1c(n2C(=O)Cc2ccc(F)cc2)CCN(C)CC1` [Compound No. 285, 1-(3,9-dimethyl-2,3,4,5-tetrahydroazepino[4,5-b]indol-6(1H)-yl)-2-(4-fluorophenyl) ethanone]: the inhibition at 1 µM in test [1] was 99%; in test [2] it was 94%; in test [3], 68%; in test [4], 75%.
The like results for `Cc1ccc(C(O)Cn2c3c(c4cc(C)ccc42)CCN(C)CC3)cc1` (stereo not drawn) [Compound No. 27, 2-(2,3,4,5-tetrahydro-3,9-dimethylazepino[4,5-b]indol-6(1H)-yl)-1-p-tolylethanol] were, in that order, 91%, 92%, 101% and 100%.
On to `Cc1ccc2c(c1)c1c(n2CC(O)c2cccnc2)CCN(C)CC1` (stereo not drawn) [Compound No. 19, 2-(2,3,4,5-tetrahydro-3,9-dimethylazepino[4,5-b]indol-6(1H)-yl)-1-(pyridin-3-yl)ethanol], for which the inhibition at 1 µM in test [1] worked out at 52%; in test [2] it was 42%; in test [3], 99%; in test [4], 90%.
For the molecule `Cc1ccc2c(c1)c1c(n2CC(C)(O)c2ccc(Cl)cc2)CCN(C)CC1` (stereo not drawn) [Compound No. 15, 2-(4-chlorophenyl)-1-(2,3,4,5-tetrahydro-3,9-dimethylazepino[4,5-b]indol-6(1H)-yl)propan-2-ol], the inhibition at 1 µM in test [1] was found to be 100%; in test [2] it was 82%; in test [3], 100%; in test [4], 104%.
For the molecule `Cc1ccc2c(c1)c1c(n2/C=C/c2ccc(Cl)cc2)CCN(C)CC1` [Compound No. 235, (E)-6-(4-chlorostyryl)-3,9-dimethyl-1,2,3,4,5,6-hexahydroazepino[4,5-b]indole], the inhibition at 1 µM worked out at 98% in test [1], 97% in test [2], 97% in test [3] and 98% in test [4].
